Measurements taken from PubChem BioAssay (NCI).
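Briefly, cells in 96-well plates were exposed to five compound concentrations for 48 h, and endpoints were estimated by linear interpolation. TGI denotes the concentration required for complete inhibition of growth.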

What was measured:
Assay in all cases: NCI tumour cell line growth inhibition, 48 h
786-0 renal = system: 786-0 renal
A498 renal = system: A498 renal
A549 NSCLC = system: A549 NSCLC
ACHN renal = system: ACHN renal
BT-549 breast = system: BT-549 breast
CAKI-1 renal = system: CAKI-1 renal
CCRF-CEM leukemia = system: CCRF-CEM leukemia
COLO 205 colon = system: COLO 205 colon
DU-145 prostate = system: DU-145 prostate
EKVX NSCLC = system: EKVX NSCLC
HCC-2998 colon = system: HCC-2998 colon
HCT-116 colon = system: HCT-116 colon
HCT-15 colon = system: HCT-15 colon
HL-60(TB) leukemia = system: HL-60(TB) leukemia
HOP-62 NSCLC = system: HOP-62 NSCLC
HOP-92 NSCLC = system: HOP-92 NSCLC
HS 578T breast = system: HS 578T breast
HT29 colon = system: HT29 colon
IGROV1 ovarian = system: IGROV1 ovarian
K-562 leukemia = system: K-562 leukemia
KM12 colon = system: KM12 colon
LOX IMVI melanoma = system: LOX IMVI melanoma
M14 melanoma = system: M14 melanoma
MALME-3M melanoma = system: MALME-3M melanoma
MCF7 breast = system: MCF7 breast
MDA-MB-231 breast = system: MDA-MB-231 breast
MDA-MB-435 = system: MDA-MB-435
MDA-N = system: MDA-N
MOLT-4 leukemia = system: MOLT-4 leukemia
NCI-H226 lung = system: NCI-H226 lung
NCI-H23 lung = system: NCI-H23 lung
NCI-H460 lung = system: NCI-H460 lung
NCI-H522 lung = system: NCI-H522 lung
NCI/ADR-RES ovarian = system: NCI/ADR-RES ovarian
OVCAR-3 ovarian = system: OVCAR-3 ovarian
OVCAR-4 ovarian = system: OVCAR-4 ovarian
OVCAR-5 ovarian = system: OVCAR-5 ovarian
OVCAR-8 ovarian = system: OVCAR-8 ovarian
PC-3 prostate = system: PC-3 prostate
RPMI-8226 leukemia = system: RPMI-8226 leukemia
RXF 393 renal = system: RXF 393 renal
SF-268 CNS = system: SF-268 CNS
SF-295 CNS = system: SF-295 CNS
SF-539 CNS = system: SF-539 CNS
SK-MEL-2 melanoma = system: SK-MEL-2 melanoma
SK-MEL-28 melanoma = system: SK-MEL-28 melanoma
SK-MEL-5 melanoma = system: SK-MEL-5 melanoma
SK-OV-3 ovarian = system: SK-OV-3 ovarian
SN12C renal = system: SN12C renal
SNB-19 CNS = system: SNB-19 CNS
SNB-75 CNS = system: SNB-75 CNS
SR leukemia = system: SR leukemia
SW-620 colon = system: SW-620 colon
T-47D breast = system: T-47D breast
TK-10 renal = system: TK-10 renal
U251 CNS = system: U251 CNS
UACC-257 melanoma = system: UACC-257 melanoma
UACC-62 melanoma = system: UACC-62 melanoma
UO-31 renal = system: UO-31 renal

C1=Nc2ccc(cc2)-c2ccc(cc2)N=Cc2ccccc2OCc2cccc(n2)COc2ccccc21
TGI (786-0 renal): 33.1 µM | TGI (A498 renal): > 100 µM | TGI (A549 NSCLC): > 100 µM | TGI (ACHN renal): > 72.9 µM | TGI (BT-549 breast): > 95.4 µM | TGI (CAKI-1 renal): > 100 µM | TGI (CCRF-CEM leukemia): > 100 µM | TGI (COLO 205 colon): > 100 µM | TGI (DU-145 prostate): > 100 µM | TGI (EKVX NSCLC): > 100 µM | TGI (HCC-2998 colon): > 100 µM | TGI (HCT-116 colon): > 100 µM | TGI (HCT-15 colon): > 100 µM | TGI (HL-60(TB) leukemia): > 100 µM | TGI (HOP-62 NSCLC): 20.1 µM | TGI (HOP-92 NSCLC): > 60 µM | TGI (HS 578T breast): 47 µM | TGI (HT29 colon): > 100 µM | TGI (IGROV1 ovarian): > 100 µM | TGI (K-562 leukemia): > 100 µM | TGI (KM12 colon): > 100 µM | TGI (LOX IMVI melanoma): > 100 µM | TGI (M14 melanoma): > 100 µM | TGI (MALME-3M melanoma): > 100 µM | TGI (MCF7 breast): > 100 µM | TGI (MDA-MB-231 breast): > 66.3 µM | TGI (MDA-MB-435): > 100 µM | TGI (MDA-N): > 100 µM | TGI (MOLT-4 leukemia): > 100 µM | TGI (NCI-H226 lung): > 100 µM | TGI (NCI-H23 lung): 45.9 µM | TGI (NCI-H460 lung): > 100 µM | TGI (NCI-H522 lung): > 96.5 µM | TGI (NCI/ADR-RES ovarian): > 100 µM | TGI (OVCAR-3 ovarian): > 100 µM | TGI (OVCAR-4 ovarian): > 100 µM | TGI (OVCAR-5 ovarian): > 100 µM | TGI (OVCAR-8 ovarian): > 100 µM | TGI (PC-3 prostate): > 100 µM | TGI (RPMI-8226 leukemia): > 100 µM | TGI (RXF 393 renal): > 84 µM | TGI (SF-268 CNS): > 100 µM | TGI (SF-295 CNS): > 75.9 µM | TGI (SF-539 CNS): > 66.3 µM | TGI (SK-MEL-2 melanoma): > 76.3 µM | TGI (SK-MEL-28 melanoma): > 100 µM | TGI (SK-MEL-5 melanoma): > 100 µM | TGI (SK-OV-3 ovarian): > 100 µM | TGI (SN12C renal): > 100 µM | TGI (SNB-19 CNS): 46.4 µM | TGI (SNB-75 CNS): 12.1 µM | TGI (SR leukemia): > 100 µM | TGI (SW-620 colon): > 100 µM | TGI (T-47D breast): > 100 µM | TGI (TK-10 renal): > 93.3 µM | TGI (U251 CNS): > 42.8 µM | TGI (UACC-257 melanoma): > 100 µM | TGI (UACC-62 melanoma): > 100 µM | TGI (UO-31 renal): > 100 µM
